Assay results: patent publication US4579940A, “14-de(hydroxymethyl)-mycaminosyltylonolide derivatives” (Toyo Jozo Kabushiki Kaisha, priority 1983, dated 1986)
In brackets after ≈: the same amount, converted by molar mass. Where two headings read alike, the source gives them in different places.

What was measured:
Assay type in all cases: cell-based
Strept. faecalis 1501 = test: minimum inhibitory concentration (MIC), Strept. faecalis 1501; settings: Enterococcus faecalis
Strept. pyogenes 1022 = test: minimum inhibitory concentration (MIC), Strept. pyogenes 1022*; settings: Streptococcus pyogenes, macrolide-antibiotics resistant
Excerpt: (§1) In Table 1, the abbreviations have the following meanings:
(§2) The test organisms were macrolide-antibiotics resistant A-group stains (clinical isolates of strains resistant to erythromycin, olenadomycin and 16-membered macrolide antibiotics).

Staph. aureus ATCC6538P = test: minimum inhibitory concentration (MIC), Staph. aureus ATCC6538P; settings: Staphylococcus aureus
Staph. aureus MS353C36 = test: minimum inhibitory concentration (MIC), Staph. aureus MS353C36*; settings: Staphylococcus aureus, macrolide-antibiotics resistant
Excerpt: as §1, §2

Strept. pyogenes N.Y.5 = test: minimum inhibitory concentration (MIC), Strept. pyogenes N.Y.5; settings: Streptococcus pyogenes
Excerpt: In Table 1, the abbreviations have the following meanings: […]

Strept. agalactiae 1020 = test: minimum inhibitory concentration (MIC), Strept. agalactiae 1020; settings: Streptococcus agalactiae
Staph. aureus MS353 = test: minimum inhibitory concentration (MIC), Staph. aureus MS353; settings: Staphylococcus aureus
[1] = test system: Staph epidermidis ap-al-l; test: minimum inhibitory concentration (MIC), Staph epidermidis
E. coli NIHJ-JC2 = test: minimum inhibitory concentration (MIC), E. coli NIHJ-JC2; settings: Escherichia coli, NIHJJC2
Serratia marcescens = test: minimum inhibitory concentration (MIC), Serratia marcescens
Proteus vulgaris OX19 = test: minimum inhibitory concentration (MIC), Proteus vulgaris OX19
[2] = test system: Kleb. pneumoniae ATCC10031; test: minimum inhibitory concentration (MIC), Kleb. pneumoniae ATCC10031; settings: Klebsiella pneumoniae
[3] = Staph epidermidis ap-al-l, read-out: MIC

SMILES | MIC (Strept. faecalis 1501) | MIC (Strept. pyogenes 1022) | MIC (Staph. aureus ATCC6538P) | MIC (Staph. aureus MS353C36) | MIC (Strept. pyogenes N.Y.5) | MIC (Strept. agalactiae 1020) | MIC (Staph. aureus MS353) | MIC [1, 3] | MIC (E. coli NIHJ-JC2) | MIC [1] | MIC (Serratia marcescens) | MIC (Proteus vulgaris OX19) | MIC [2]
CCC1OC(=O)CC(O)C(C)C(OC2OC(C)CC(N(C)C)C2OC(C)=O)C(CC(OC)OC)CC(C)C(=O)C=CC(C)=CC1CO (stereo not drawn) [E, 2'-O-acetyl-4'-deoxy-O-mycaminosyltylonolide dimethylacetal] | ≤ 0.05 µg/mL | > 100 µg/mL | 0.1 µg/mL (≈ 0.149 µM) | 0.1 µg/mL (≈ 0.149 µM) | ≤ 0.05 µg/mL | ≤ 0.05 µg/mL | 0.1 µg/mL (≈ 0.149 µM) | ≤ 0.05 µg/mL |  |  |  |  | 
CCC1OC(=O)CC(O)C(C)C(OC2OC(C)CC(N(C)C)C2OC(C)=O)C(CC=O)CC(C)C(=O)C=CC(C)=CC1CO (stereo not drawn) [D, 2'-O-acetyl-4'-deoxy-O-mycaminosyltylonolide] | 0.2 µg/mL (≈ 0.321 µM) | > 100 µg/mL | 0.2 µg/mL (≈ 0.321 µM) | 0.2 µg/mL (≈ 0.321 µM) | ≤ 0.05 µg/mL | ≤ 0.05 µg/mL | 0.2 µg/mL (≈ 0.321 µM) | ≤ 0.05 µg/mL |  |  |  |  | 
CC[C@H]1OC(=O)C[C@@H](O)[C@H](C)[C@@H](O[C@@H]2O[C@H](C)[C@@H](O[C@H]3C[C@@](C)(O)[C@@H](O)[C@H](C)O3)[C@H](N(C)C)[C@H]2O)[C@@H](CC=O)C[C@@H](C)C(=O)/C=C/C(C)=C/[C@@H]1CO[C@@H]1O[C@H](C)[C@@H](O)[C@@H](OC)[C@H]1OC [TS, tylosin, reference compound] | 1.6 µg/mL (≈ 1.75 µM) | > 100 µg/mL |  | > 100 µg/mL |  | 0.4 µg/mL (≈ 0.437 µM) |  |  | > 100 µg/mL | 0.4 µg/mL (≈ 0.437 µM) |  |  | 
CCC1CC=C(C)C=CC(=O)C(C)CC(CC=O)C(OC2OC(C)C(O)C(N(C)C)C2O)C(C)C(O)CC(=O)O1 (stereo not drawn) [C, 14-de(hydroxymethyl)-O-mycaminosyltylonolide] | 0.1 µg/mL (≈ 0.176 µM) | > 100 µg/mL | ≤ 0.05 µg/mL | ≤ 0.05 µg/mL | ≤ 0.05 µg/mL | ≤ 0.05 µg/mL | ≤ 0.05 µg/mL | ≤ 0.05 µg/mL |  |  |  |  | 
CCC1CC=C(C)C=CC(=O)C(C)CC(CC=O)C(OC2OC(C)CC(N(C)C)C2O)C(C)C(O)CC(=O)O1 (stereo not drawn) [F, 14-de(hydroxymethyl)-4'-deoxy-O-mycaminosyltylonolide] | 0.2 µg/mL (≈ 0.363 µM) | > 100 µg/mL | 0.1 µg/mL (≈ 0.181 µM) | 0.2 µg/mL (≈ 0.363 µM) | ≤ 0.05 µg/mL | ≤ 0.05 µg/mL | 0.1 µg/mL (≈ 0.181 µM) | ≤ 0.05 µg/mL |  |  |  |  | 
CC[C@H]1OC(=O)[C@H](C)[C@@H](O[C@H]2C[C@@](C)(OC)[C@@H](O)[C@H](C)O2)[C@H](C)[C@@H](O[C@@H]2O[C@H](C)C[C@H](N(C)C)[C@H]2O)[C@](C)(O)C[C@@H](C)C(=O)[C@H](C)[C@@H](O)[C@]1(C)O [EM, erythromycin, reference compound] |  | > 100 µg/mL | 0.2 µg/mL (≈ 0.273 µM) | > 100 µg/mL | ≤ 0.05 µg/mL | ≤ 0.05 µg/mL | 0.2 µg/mL (≈ 0.273 µM) |  |  | 0.1 µg/mL (≈ 0.136 µM) |  |  | 
CCOC(=O)C1C=C(C)C=CC(=O)C(C)CC(CC=O)C(OC2OC(C)C(O)C(N(C)C)C2O)C(C)C(O)CC(=O)OC1CC (stereo not drawn) [H, 14-ethyloxycarbonyl-14-de(hydroxymethyl)-O-mycaminosyltylonolide] | ≤ 0.05 µg/mL | > 100 µg/mL | 0.2 µg/mL (≈ 0.313 µM) | 0.4 µg/mL (≈ 0.625 µM) | ≤ 0.05 µg/mL | ≤ 0.05 µg/mL | 0.2 µg/mL (≈ 0.313 µM) | 0.1 µg/mL (≈ 0.156 µM) |  |  |  |  | 
CCC1OC(=O)CC(O)C(C)C(OC2OC(C)C(OC(C)=O)C(N(C)C)C2OC(C)=O)C(CC(OC)OC)CC(C)C(=O)C=CC(C)=CC1CO (stereo not drawn) [A, 2',4'-di-O-acetyl-O-mycaminosyltylonolide dimethylacetal] | 0.2 µg/mL (≈ 0.275 µM) | > 100 µg/mL | 0.2 µg/mL (≈ 0.275 µM) |  | ≤ 0.05 µg/mL | ≤ 0.05 µg/mL | 0.2 µg/mL (≈ 0.275 µM) | 0.1 µg/mL (≈ 0.137 µM) | 25 µg/mL (≈ 34.3 µM) |  | 12.5 µg/mL (≈ 17.2 µM) | 6.3 µg/mL (≈ 8.66 µM) | 1.6 µg/mL (≈ 2.2 µM)
CCC1OC(=O)CC(O)C(C)C(OC2OC(C)C(O)C(N(C)C)C2O)C(CC=O)CC(C)C(=O)C=CC(C)=CC1C(=O)OC(C)C (stereo not drawn) [G, 14-isopropyloxycarbonyl-14-de(hydroxymethyl)-O-mycaminosyltylonolide] | 0.2 µg/mL (≈ 0.306 µM) | > 100 µg/mL | 0.4 µg/mL (≈ 0.612 µM) | 0.8 µg/mL (≈ 1.22 µM) | ≤ 0.05 µg/mL | ≤ 0.05 µg/mL | 0.4 µg/mL (≈ 0.612 µM) | 0.2 µg/mL (≈ 0.306 µM) |  |  |  |  | 
